Experimental data reported in patent US11974976B2, “Animal feeds and feed premixes containing betaine hydrochloride and a phytase” (Rural Chemical Industries (AUST) PTY LTD, priority 2013, dated 2024).
Counter-ions that a name gives are not always drawn. Marks after values point to notes of the source that are not given here.

What was measured:
male Ross 308 chicks [1] = test: Nutrient utilisation (AME, N retention, N-corrected AME); type: in vivo, broiler chicks; details: for Increase in AMEn on addition to diet: diet type x betaine HCl interaction; for AME / AME (energy intake) / AMEn / N retention: phytase 500 FTU/kg, betaine 2.75 g/kg
From the text: Energy that is not metabolisable is ‘excreted energy’. Another way of defining ‘metabolisable energy’ is to refer to an ‘apparent metabolisable energy value’ or ‘AME value’. An ‘AME value’ is simply the gross energy of the feed consumed minus the gross energy contained in the faeces, urine, and gaseous products of digestion.

male Ross 308 chicks [2] = test: N excretion during total excreta collection period; type: in vivo, broiler chicks; details: for N excretion: total excreta collection period, phytase 500 FTU/kg, betaine 2.75 g/kg
Experimental: The composition and nutrient specifications of the three basal starter (1-16 days post-hatch) and finisher (17-37 days post-hatch) diets are shown in Table 1. An NSP-degrading enzyme (Econase XT) was included across all the wheat-based diets to reflect standard practice and the finisher diets contained 20 g/kg Celite as an acid insoluble ash dietary marker. The starter diets were fed as mash, while the finisher diets were steam-pelleted at a conditioning temperature of 85° C. The NC1 diets were the ‘phytase-modified’ diets with formulated with reductions of 1.4 g/kg Ca and 1.5 g/kg P in the starter diets, which mainly stemmed from the elimination of dicalcium phosphate. The corresponding reductions in the finisher diets were 1.2 g/kg Ca and 1.4/kg P. The NC2 diets were the ‘betaine-modified’ diets in which energy density, methionine and choline levels were reduced mainly by lower inclusion levels of canola oil and synthetic methionine and the elimination of choline chloride relative to the PC diets. The energy densities were reduced from 12.55 to 12.24 MJ/kg in the starter diets and from 12.97 to 12.66 MJ/kg in the finisher diets. Methionine levels were reduced from 4.44 to 3.19 g/kg in the starter diets and from 4.18 to 2.93 g/kg in the finisher diets. Exogenous phytase (Quantum® Blue; AB Vista) was included in the relevant diets at 100 g per tonne or 500 FTU/kg phytase activity and, similarly, betaine HCl (Hi Beta″, 970 g/kg betaine hydrochloride; Rural Chemical Industries) was included in the diets at 2.75 g/kg.
The parameters evaluated included growth performance (weight gains, feed intakes, feed conversion ratios; FCR) from 1 to 16, 17 to 37 and 1 to 37 days post-hatch, 1 to 37 days weight gain-corrected FCR, mortality/cull rates, percentage toe ash, nitrogen (N) excretion and nutrient utilisation. Nutrient utilisation included apparent metabolisable energy (AME), expressed as both MJ/kg and MJ/day, N retention and N-corrected AME (AMEn). Also, breast weights in absolute and relative (% yield) terms, abdominal fat pad weights and pH of gizzard contents were determined. However, for reasons of practical expediency, absolute breast weights were determined on a ‘bone-in’ basis from birds that had not been de-feathered and this approach inflates both the absolute weight and yield; nevertheless, the data remains indicative. The experimental data was obtained and calculated via standard procedures followed by the Poultry Research Foundation. While the various procedures are not detailed in this report the majority of them have been described in detail (Selle et al., 2003b) previously.
The experimental data was statistically analysed as a 3×2×2 factorial array of dietary treatments. That is diet type (PC, NC1, NC2), without and with the addition of phytase, without and with the addition of betaine HCl. Each of the 12 dietary treatments was offered to 8 replicate cages of 6 birds or a total of 96 cages and 576 birds (male Ross 308 chicks). The IBM® SPSS® Statistics 20 program was used to analyse experimental data and the study complied with specific guidelines of the Animal Ethics Committee of Sydney University.

[3] = main effect across diets, hydrochloride
[4] = main effect across diets, listed as betaine HCl, hydrochloride
[5] = main effect across diets, listed as betaine, hydrochloride

With `C[N+](C)(C)CC(=O)O` [Betaine, betaine hydrochloride] the “AME, diet type x betaine interaction mean” value (male Ross 308 chicks [1]; NC1 diets) was 13.10 mJ/kg, the “AMEn, diet type x betaine HCl interaction mean” value (male Ross 308 chicks [1]; NC1 diets) was 11.36 mJ/kg and the “Increase in AMEn on addition to diet” value (male Ross 308 chicks [1]; NC1 diets) was 1.01 mJ. For the same compound, the “Increase in AME on addition to diet” value (male Ross 308 chicks [1]; NC1 diets, diet type x betaine interaction) was 0.78 mJ, the “Increase in AME relative to control diet” value (male Ross 308 chicks [1]; NC1 diets, individual addition) was 0.44 mJ and the AME (male Ross 308 chicks [1]; NC1 diets) was 12.77 MJ/kg DM. The “AME (energy intake)” value (male Ross 308 chicks [1]; NC1 diets) was 1.868 mJ/day, the AMEn (male Ross 308 chicks [1]; NC1 diets) was 11.25 MJ/kg DM and the N retention (male Ross 308 chicks [1]; NC1 diets) was 52.14%. The “Increase in AMEn on addition to diet” value (male Ross 308 chicks [1]; NC2 diets) was 0.17 mJ, the “Decrease in AME on addition to diet” value (male Ross 308 chicks [1]; NC2 diets, diet type x betaine interaction) was 0.08 mJ and the AME (male Ross 308 chicks [1]; NC2 diets) was 12.86 MJ/kg DM. The “AME (energy intake)” value (male Ross 308 chicks [1]; NC2 diets) was 2.061 mJ/day, the AMEn (male Ross 308 chicks [1]; NC2 diets) was 11.43 MJ/kg DM and the N retention (male Ross 308 chicks [1]; NC2 diets) was 49.25%. For the same compound, the “Increase in AMEn on addition to diet” value (male Ross 308 chicks [1]; PC diets) was 0.23 mJ, the “Increase in AME on addition to diet” value (male Ross 308 chicks [1]; PC diets, diet type x betaine interaction) was 0.20 mJ and the AME (male Ross 308 chicks [1]; PC diets) was 13.29 MJ/kg DM. The “AME (energy intake)” value (male Ross 308 chicks [1]; PC diets) was 2.077 mJ/day, the AMEn (male Ross 308 chicks [1]; PC diets) was 11.69 MJ/kg DM and the N retention (male Ross 308 chicks [1]; PC diets) was 52.05%. For the same compound, the “AME (energy intake), phytase x betaine interaction mean” value (male Ross 308 chicks [1]; across diet types) was 2.002 mJ/day, the “AMEn, phytase x betaine HCl interaction mean” value (male Ross 308 chicks [1]; across diet types) was 11.46 mJ/kg and the “Increase in AMEn by betaine HCl” value (male Ross 308 chicks [1]; in the absence of phytase) was 0.20 mJ. For the same compound, the “Decrease in AME on betaine addition” value (male Ross 308 chicks [1]; in the absence of phytase, across diet types) was 0.08 mJ, the “Increase in AMEn by betaine HCl” value (male Ross 308 chicks [1]; in the presence of phytase) was 0.74 mJ and the “Increase in AME on betaine addition” value (male Ross 308 chicks [1]; in the presence of phytase, across diet types) was 0.67 mJ. For the same compound, the “Increase in AME” value (male Ross 308 chicks [1]; main effect) was 0.30 mJ/kg, the N retention (male Ross 308 chicks [1]; main effect across diets) was 52.02% and the AME (male Ross 308 chicks [1]; [3]) was 13.33^b MJ/kg DM. For the same compound, the “AME (energy intake)” value (male Ross 308 chicks [1]; [3]) was 2.126 mJ/day, the AMEn (male Ross 308 chicks [1]; [3]) was 11.79^b MJ/kg DM and the AMEn (male Ross 308 chicks [1]; [4]) was 11.79 MJ/kg DM. For the same compound, the AME (male Ross 308 chicks [1]; [5]) was 13.33 MJ/kg DM, the “AME (energy intake)” value (male Ross 308 chicks [1]; [5]) was “did not influence” and the N excretion (male Ross 308 chicks [2]; NC1 diets) was 37.30 g/bird. For the same compound, the “Reduction of N excretion versus NC2 control diets” value (male Ross 308 chicks [2]; NC2 diets) was 7.03%, the N excretion (male Ross 308 chicks [2]; NC2 diets) was 42.47 g/bird and the N excretion (male Ross 308 chicks [2]; PC diets) was 40.34 g/bird. For the same compound, the “Reduction of N excretion” value (male Ross 308 chicks [2]; main effect) was 7.69%, the N excretion (male Ross 308 chicks [2]; [3]) was 38.79^a g/bird and the N excretion (male Ross 308 chicks [2]; main effect across diets, listed as Betaine HCl, hydrochloride) was 38.79 g/bird. For the same compound, the N excretion (male Ross 308 chicks [2]; [4]) was 38.79 g/bird.
